Measurements from patent US7037896B1, “Peptide (VIRIP) which inhibits a circulating virus in humans and the use thereof” (priority 1999, dated 2006).

Tests used:
HIV-1 = conditions: three days after infection
Method: FIG. 2: Influence of synthetic VIRIP on the infection of CEMx174-SEAP indicator cells (left) and replication in human PBMCs (right). The cells were infected and cultured in the presence of the stated amounts of VIRIP. To determine the viral entry, the activity of the secreted alkaline phosphatase was determined in the culture supernatant of the CEMx174-SEAP cells three days after the infection.

HIV-1 NL43 = test: Replication of HIV-1 in human PBMCs (reverse transcriptase test in culture supernatant); format: cell-based
Method: FIG. 1: Purification of VIRIP. The purification steps are described in the text. (b) Inhibition of the replication of HIV-1 NL43 in human blood lymphocytes by fraction 1–20. The cells were stimulated with PHA for 2 days, infected with virus stocks containing 10 ng of p24, and the reverse transcriptase activity determined in the culture supernatant 9 days after the infection. The result of the infection experiments is shown.
The isolation of VIRIP was effected on the basis of its inhibitory action on the replication of HIV-1 in an assay which measures the replication of HIV-1 in human peripheral blood lymphocytes (PBMCs). Thus, aliquots of each of the individual chromatographic fractions described under Example 1 were freeze-dried and then subjected to the biological assay in amounts of from 10 ml up to 1 l of hemofiltrate equivalent. The respective fractions which gave a positive signal were subjected to further purification.
Human peripheral blood lymphocytes (PBMCs) were obtained from whole blood using density gradient centrifugation in Ficoll. The cells were prestimulated for two days (RPMI medium, 20% FKS, 100 U/ml IL-2, 5 μg/ml phytohemagglutinin [PHA]). Then, the PBMCs were sedimented by centrifugation at 1200 rpm for 5 min, taken up in PHA-free RPMI medium (20% FKS, 100 U/ml IL-2) and seeded in 96-well flat-bottomed plates in a volume of 80 μl in concentrations of about 150,000 cells per well.
On the following day, aliquots of the individual chromatographic steps described under Example 1 were supplied in amounts of from 10 ml up to 1 l of hemofiltrate equivalent. Thus, the freeze-dried chromatographic fractions were taken up in water and pipetted to the PBMCs in various concentrations in a total volume of 10 μl. After 2 hours of incubation at 37° C., the cells were infected by the addition of 10 μl of HIV-1 virus stock containing from 0.1 to 10 ng of p24 antigen. Subsequently, 50 μl of the culture medium was replaced every 2 days by fresh medium which additionally contained the corresponding peptide fractions. The production of HIV particles at different times (after 9, 12 and 18 days) from the infection of the cells was quantified in a reverse transcriptase (RT) test. The RT test measures the activity of reverse transcriptase in a cell-free culture supernatant, which is thus a measure of the production of viral particles and viral replication in the PBMC cultures. Alternatively, the viral production was determined in p24 antigen ELISA.

[1] = test system: chimeric onco-lentivirus (Mu-HIV) carrying the MLV envelope protein; test: Replication of chimeric onco-lentivirus in human PBMC (RT activity); format: cell-based
Method: (§1) FIG. 5: VIRIP inhibits the replication of various HIV isolates with different cell- and co-receptor-tropisms in human PBMC. Prestimulated PBMC were treated with the various HIV-1 isolates (10 ng of p27 antigen) or a chimeric onco-lentivirus (Mu-HIV) in the presence of the VIRIP concentrations shown. Viral replication was determined by measuring the reverse transcriptase activity in the cell culture supernatant.
(§2) The inhibitory effects on R5-tropic forms were lesser. A chimeric onco-lentivirus (Mu-HIV) carrying the MLV envelope protein was not inhibited (FIG. 5, bottom).

[2] = test system: X4-tropic HIV-1 P59S isolate; test: Dose-dependent inhibition of infection of P4R5 indicator cells, P59S isolate; format: cell-based; conditions: 2 days after infection
Method: (§3) P4R5 indicator cells were infected in the presence of the shown concentrations of VIRIP, and the β-galactosidase activity was measured in the cell extract 2 days after the infection.
(§4) In order to quantify the inhibitory effect of the substance according to the invention more precisely, P4R5 indicator cells were infected with the X4-tropic HIV-1 P59S isolate and the R5-tropic 92TH isolate in the presence of different doses of VIRIP.

dual-tropic HIV variants = test: Replication of HIV isolates in human PBMC (RT activity), dual-tropic variants; format: cell-based
Method: as §1, §2

[3] = test system: X4/R5-tropic HIV-1 NL4-3 V3 variants; test: Infection of P4R5 indicator cells with NL4-3 V3 recombinants, X4/R5-tropic variants; format: cell-based; conditions: 50 ng of p24, luciferase test
Source text: (§5) FIG. 3: The V3 loop of the X4-tropic NL43 clone was exchanged for the corresponding sequences of the HIV-1 isolates shown. Thus, the recombinant viruses are distinguished exclusively in the V3 loop. In the right panel, the observed inhibitors effect (%), the overall charge of the V3 region and the co-receptor-tropism are shown. At the bottom, the consensus sequence (SEQ ID NO: 6) is shown.
(§6) The V3 loop of the X4-tropic NL4-3 clone was replaced by the corresponding region of a number of primary HIV-1 isolates. […] To determine the inhibitory influence of VIRIP on these variants, P4R5 indicator cells were examined. P4R5 cells express both CCR5 and CXCR4 and contain the luciferase gene under the control of HIV-1 LTR. This cell line was infected with the various recombinant viruses (50 ng of p24) in the presence and absence of VIRIP, and the infection was quantified using the luciferase test.

blood cells = test: Cytotoxic effect on the blood cells
X4-tropic HIV variants = test: Replication of HIV isolates in human PBMC (RT activity), X4-tropic variants; format: cell-based
Method: as §1, §2

[4] = test system: X4-tropic HIV-1 NL4-3 V3 variants; test: Infection of P4R5 indicator cells with NL4-3 V3 recombinants, X4-tropic variants; format: cell-based
Source text: as §5, §6

[5] = test system: R5-tropic HIV-1 NL4-3 V3 variants; test: Infection of P4R5 indicator cells with NL4-3 V3 recombinants, R5-tropic variants; format: cell-based; conditions: 50 ng of p24, luciferase test
Source text: as §5, §6

R5-tropic 92TH isolate = test: Dose-dependent inhibition of infection of P4R5 indicator cells, 92TH isolate; format: cell-based, HIV-1
Method: as §3, §4

R5-tropic forms = test: Replication of HIV isolates in human PBMC (RT activity), R5-tropic forms; format: cell-based; conditions: compared with X4-tropic and dual-tropic variants
Method: as §1, §2

LEAIPMSIPPEVKFNKPFVF [VIRIP, 20-amino-acid fragment (amino acids 353 to 372) of human alpha-1-antitrypsin, isolated from hemofiltrate and also chemically synthesized]
inhibition of the HIV-1 infection of CEMx174-SEAP indicator cells (HIV-1): dose-dependent inhibition | inhibition of the replication of HIV-1 in PBMCs (HIV-1 NL43; listed as VIRIP from hemofiltrate): effectively block | inhibition of the replication of HIV-1 in PBMCs (HIV-1 NL43; listed as VIRIP purified from hemofiltrate): dose-dependent inhibition | inhibition of the replication of HIV-1 in PBMCs (HIV-1 NL43; listed as chemically synthesized VIRIP): dose-dependent inhibition | inhibition of the replication of HIV-1 in PBMCs (HIV-1 NL43; listed as synthetically prepared VIRIP): dose-dependent suppression | inhibition of the replication of HIV-1 in PBMCs (HIV-1 NL43; listed as synthetically prepared peptide): effectively block | inhibition of chimeric onco-lentivirus (Mu-HIV) [1]: not inhibited | concentration inhibiting the HIV-1 P59S isolate by 50% [2]: 40 µg/mL | concentration inhibiting the HIV-1 P59S isolate by 90% [2]: 180 µg/mL | suppression of replication of dual-tropic HIV variants (dual-tropic HIV variants; 100 μg/ml): at least partially | suppression of replication of dual-tropic HIV variants (dual-tropic HIV variants; 1000 μg/ml): completely | inhibition of X4/R5-tropic variants [3]: inhibited | cytotoxic effect on the blood cells (blood cells): does not exert any cytotoxic effect | suppression of replication of X4-tropic HIV variants (X4-tropic HIV variants; 100 μg/ml): at least partially | suppression of replication of X4-tropic HIV variants (X4-tropic HIV variants; 1000 μg/ml): completely | efficiency of inhibition of X4-tropic variants having a strongly positively charged V3 loop as compared with R5-tropic or dual-tropic isolates [4]: inhibited more efficiently | inhibition of X4-tropic variants ([4]; 50 ng of p24, luciferase test): inhibited | inhibition of R5-tropic variants [5]: inhibited | concentrations required for inhibiting the 92TH isolate relative to P59S (R5-tropic 92TH isolate): about twofold higher concentrations | inhibitory effects on R5-tropic forms (R5-tropic forms): lesser
